Test results: paper PMC8330742, “New benzothieno[2,3-c]pyridines as non-steroidal CYP17 inhibitors: design, synthesis, anticancer screening, apoptosis induction, and in silico ADME profile studies” (Journal of Enzyme Inhibition and Medicinal Chemistry, 2021)

Experiments:
[1] = system: MALME-3M; assay: NCI-60 SRB screen; assay type: cell-based, human; conditions: for inhibition at 10 µM: single dose 10^−5 M, read-out: Growth inhibition (%);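 as to IC50: half-maximal inhibitory concentration read as cell viability unlike GI50 net growth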
[2] = system: A498; assay: NCI-60 SRB screen; assay type: cell-based, human; conditions: A498; for inhibition at 10 µM: single dose 10^−5 M, read-out: Growth inhibition (%);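 as to IC50: half-maximal inhibitory concentration read as cell viability unlike GI50 net growth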
[3] = system: renal cancer cell line (UO-31); assay: MTT cytotoxicity assay; assay type: cell-based, human
Protocol: (§1) The MTT method for monitoring in vitro cytotoxicity was used with multiwell plates. Three human cell lines, namely prostate cancer cell line (PC-3), renal cancer cell line (UO-31), and breast cancer cell line (MCF-7) were obtained from the American Type Culture Collection ATCC, Manassas, VA, USA). The cells were trypsinized and seeded in 96 well plates with a density of 1.2 − 1.8 × 10,000 cells/well for 24 h at 37 °C. After treating the cells with five concentrations of compound 5c (0.01, 0.1, 1, 10, 100 µM), an MTT solution (Sigma Co., St. Louis, MO, USA) (5 mg/mL in phosphate buffer solution) was applied to each well and […]. The plates were cultivated in 5% CO2 for 4 h at 37 °C. Successively, the remaining formazan crystals were dissolved in 100 µl of DMSO, and the absorbance was determined with the ROBONIK P2000 spectrophotometer at a wavelength of 570 nm. The obtained values were analysed using Gen5 software (BioTek, UK). The proliferation percentage in each treated cell line was standardised based on their control wells. Both tests have been conducted in triplicate. The IC50 values were calculated using sigmoidal dose-response curve fitting models. […] Each test included a blank containing a complete medium without cells.

[4] = system: breast cancer cell line (MCF-7); assay: MTT cytotoxicity assay; assay type: cell-based, human
Protocol: as §1

[5] = system: prostate cancer cell line (PC-3); assay: MTT cytotoxicity assay; assay type: cell-based, human
Protocol: as §1

[6] = system: MDA-MB-231/ATCC; assay: NCI-60 SRB screen; assay type: cell-based, human; conditions: for inhibition at 10 µM: MDA-MB-231, MDAMB231/ATCC, single dose 10^−5 M, read-out: Growth inhibition (%)
[7] = system: BT-549; assay: NCI-60 SRB screen; assay type: cell-based, human; conditions: BT-549; for inhibition at 10 µM: single dose 10^−5 M, read-out: Growth inhibition (%)
[8] = system: MDA-MB-468; assay: NCI-60 SRB screen; assay type: cell-based, human; conditions: MDA-MB-468; for inhibition at 10 µM: single dose 10^−5 M, read-out: Growth inhibition (%)
[9] = system: HT-29; assay: NCI-60 SRB screen; assay type: cell-based; conditions: for inhibition at 10 µM: single dose 10^−5 M, read-out: Growth inhibition (%)
[10] = system: DU-145; assay: NCI-60 SRB screen; assay type: cell-based, human; conditions: DU-145; for inhibition at 10 µM: single dose 10^−5 M, read-out: Growth inhibition (%)
[11] = system: OVCAR-5; assay: NCI-60 SRB screen; assay type: cell-based, human; conditions: OVCAR-5; for inhibition at 10 µM: single dose 10^−5 M, read-out: Growth inhibition (%)
[12] = system: PC-3; assay: NCI-60 SRB screen; assay type: cell-based, human; conditions: PC-3; for inhibition at 10 µM: single dose 10^−5 M, read-out: Growth inhibition (%)
[13] = system: MCF7; assay: NCI-60 SRB screen; assay type: cell-based, human; conditions: for inhibition at 10 µM: MCF-7, single dose 10^−5 M, read-out: Growth inhibition (%)
[14] = system: T-47D; assay: NCI-60 SRB screen; assay type: cell-based, human; conditions: for inhibition at 10 µM: single dose 10^−5 M, read-out: Growth inhibition (%)
[15] = system: RPMI-8226; assay: NCI-60 SRB screen; assay type: cell-based; conditions: RPMI-8226; for inhibition at 10 µM: single dose 10^−5 M, read-out: Growth inhibition (%)
[16] = system: PC-3 cells; assay: Cell cycle analysis (propidium iodide, flow cytometer); assay type: cell-based, human; conditions: PC-3, 2.34 µM, 24 h
Protocol: The prostate PC-3 cells were placed in a six-well plate at 1 × 10^5 conc. of cells/well, then incubated for 24 h. The cells were treated with 2.34 µM of compound 5c or (0.1% DMSO) for 24 h. Thereafter, cells were collected and fixed for 12 h using ice-cold 70% ethanol at 4 °C. Then, ethanol was removed, and the cells were washed with cold Phosphate Buffer Saline (PBS) and incubated for 30 min at 37 °C in 0.5 ml of PBS. The cells were stained for 30 min with propidium iodide in the dark. The flow cytometer was used to detect DNA contents.

[17] = system: SF-539; assay: NCI-60 SRB screen; assay type: cell-based, human; conditions: SF-539, five dose;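 as to IC50: half-maximal inhibitory concentration read as cell viability unlike GI50 net growth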
[18] = system: U251; assay: NCI-60 SRB screen; assay type: cell-based, human; conditions: U251, five dose;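 as to IC50: half-maximal inhibitory concentration read as cell viability unlike GI50 net growth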
[19] = system: PC-3 cells; assay: Annexin V-FITC apoptosis assay; assay type: cell-based, human; conditions: PC-3, 2.34 µM, 24 h
Protocol: PC-3 cells were placed in a 6-well plate at 1 × 10^5 conc. of cells per well, then incubated for 24 h. Afterward, the cells were treated with 2.34 µM of compound 5c or (0.1% DMSO) for 24 h, then harvested, washed with PBS, and stained with annexin V-FITC and PI in binding buffer ([…], […], and […] at pH 7.4) for 15 min at room temperature in the dark, then analysed by the flow cytometer.

[20] = system: SNB-19; assay: NCI-60 SRB screen; assay type: cell-based; conditions: SNB-19, five dose
[21] = system: SNB-75; assay: NCI-60 SRB screen; assay type: cell-based, human; conditions: SNB-75, five dose
[22] = Homo sapiens, MDA-MB-231/ATCC, five dose
[23] = Homo sapiens, HT-29, HT29, five dose

For `COc1ccc(C2NC(=O)C(C#N)c3c2sc2c(F)cccc32)c(OC)c1` (stereo not drawn) [Compound 5a, 1-(2,4-Dimethoxyphenyl)-4-cyano-8-fluoro-1,2-dihydro[1]benzothieno [2,3-c]pyridin-3(4H)-one], the inhibition at 10 µM ([1]; Homo sapiens) was 60.3%, the inhibition at 10 µM ([2]; Homo sapiens) was 74.8% and the “potency compared to staurosporine” value [3] was “weak activity”. For the same compound, the “potency compared to staurosporine” value [4] was “moderate activity”, the “potency compared to staurosporine” value [5] was “moderate activity” and the melting point was 100 to 102 °C. The inhibition at 10 µM ([6]; Homo sapiens) was 27.3%, the inhibition at 10 µM ([7]; Homo sapiens) was 78.6% and the inhibition at 10 µM ([8]; Homo sapiens) was 75.7%. The inhibition at 10 µM ([9]; Homo sapiens, HT-29) was 36%, the inhibition at 10 µM ([10]; Homo sapiens) was 9.51% and the inhibition at 10 µM ([11]; Homo sapiens) was 1.24%. The inhibition at 10 µM ([12]; Homo sapiens) was 43.2%, the inhibition at 10 µM ([13]; Homo sapiens) was 75.5% and the inhibition at 10 µM ([14]; Homo sapiens, T47D) was 38.3%.

For `COc1ccc(C2NC(=O)C(C#N)c3c2sc2c(F)cccc32)cc1` (stereo not drawn) [Compound 5b, 4-Cyano-8-fluoro-1-(4-methoxyphenyl)-1,2-dihydro[1]benzothieno[2,3-c] pyridin-3(4H)-one], the inhibition at 10 µM ([1]; Homo sapiens) was 52.9%, the inhibition at 10 µM ([2]; Homo sapiens) was 68.8% and the “potency compared to staurosporine” value [3] was “moderate activity”. For the same compound, the “potency compared to staurosporine” value [4] was “moderate activity”, the “potency compared to staurosporine” value [5] was “moderate activity” and the melting point was 103 to 105 °C. It also gave an inhibition at 10 µM ([6]; Homo sapiens) of 28.8%, an inhibition at 10 µM ([7]; Homo sapiens) of 44.6% and an inhibition at 10 µM ([8]; Homo sapiens) of 66.3%. For the same compound, the inhibition at 10 µM ([9]; Homo sapiens, HT-29) was 49.5%, the inhibition at 10 µM ([10]; Homo sapiens) was 35.2% and the inhibition at 10 µM ([11]; Homo sapiens) was 14.4%. For the same compound, the inhibition at 10 µM ([12]; Homo sapiens) was 50.6%, the inhibition at 10 µM ([13]; Homo sapiens) was 67.4% and the inhibition at 10 µM ([14]; Homo sapiens, T47D) was 19.9%. The inhibition at 10 µM ([15]; Homo sapiens) was 36.9%.

In the case of `N#CC1C(=O)NC(c2ccccc2[N+](=O)[O-])c2sc3c(F)cccc3c21` (stereo not drawn) [Compound 5c, 4-Cyano-8-fluoro-1-(2-nitrophenyl)-1,2-dihydro[1]benzothieno[2,3-c] pyridin-3(4H)-one], the “DNA content (%) G0-G1” value [16] is reported as 49.61%, the “DNA content (%) G2/M” value [16] is reported as 6.21% and the “DNA content (%) Pre-G1” value [16] is reported as 42.55%. For the same compound, the “DNA content (%) S” value [16] was 44.18%, the GI50 ([1]; Homo sapiens, five dose) was 22.6 µM and the IC50 ([1]; Homo sapiens, five dose) was 83.2 µM. It also gave an inhibition at 10 µM ([1]; Homo sapiens) of 25.3%, a TGI ([1]; five dose) of 100 µM and a TGI ([2]; five dose) of 5.98 µM. It also gave a GI50 ([2]; Homo sapiens, five dose) of 1.32 µM, an IC50 ([2]; Homo sapiens, five dose) of 3.09 µM and an inhibition at 10 µM ([2]; Homo sapiens) of 161%. For the same compound, the “potency compared to staurosporine” value [3] was “higher potency”, the “potency compared to staurosporine” value [4] was “half potency” and the “potency compared to staurosporine” value [5] was “higher potency”. For the same compound, the “potency relative to abiraterone” value [5] was “fourfold”, the IC50 ([5]; Homo sapiens) was 2.08 µM and the GI50 ([17]; Homo sapiens) was 23 µM. It also gave an IC50 ([17]; Homo sapiens) of 46.8 µM, a TGI [17] of 100 µM and a GI50 ([18]; Homo sapiens, U-251) of 2.5 µM. For the same compound, the IC50 ([18]; Homo sapiens, U-251) was 12.6 µM, the TGI [18] was 100 µM and the inhibition at 10 µM ([6]; Homo sapiens) was 24.5%. For the same compound, the GI50 [6, 22] was 11.6 µM, the IC50 [6, 22] was 33.1 µM and the TGI ([6]; MDA-MB-231/ATCC, five dose) was 100 µM. The TGI ([7]; five dose) was 100 µM, the GI50 ([7]; Homo sapiens, five dose) was 16.5 µM and the IC50 ([7]; Homo sapiens, five dose) was 72.4 µM. The inhibition at 10 µM ([7]; Homo sapiens) was 10.8%, the “Apoptosis total (% of cells)” value [19] was 42.55% and the “Early apoptosis (% of cells)” value [19] was 1.66%. For the same compound, the “Late apoptosis (% of cells)” value [19] was 26.67%, the “Necrosis (% of cells)” value [19] was 14.22% and the “elevation in necrosis vs control” value [19] was 7.68 fold. The “increase in early apoptotic cells vs control” value [19] was 6.64 fold, the “increase in late apoptotic cells vs control” value [19] was 140.36 fold and the “total increase vs control” value [19] was 18.58 fold. For the same compound, the GI50 ([20]; Homo sapiens) was 24.6 µM, the IC50 ([20]; Homo sapiens) was 44.7 µM and the LC50 ([20]; Homo sapiens) was greater than 100 µM. For the same compound, the TGI [20] was 100 µM, the GI50 ([8]; Homo sapiens, five dose) was 0.15 µM and the IC50 ([8]; Homo sapiens, five dose) was 0.24 µM. The inhibition at 10 µM ([8]; Homo sapiens) was 149%, the TGI ([8]; five dose) was 0.65 µM and the TGI ([9]; HT29, five dose) was 100 µM. The GI50 [9, 23] was 19.6 µM, the IC50 [9, 23] was 25.7 µM and the LC50 (concentration killing 50% of cells) [9, 23] was greater than 100 µM. It also gave an inhibition at 10 µM ([9]; Homo sapiens, HT-29) of 14.7%, a TGI ([10]; five dose) of 100 µM and a GI50 ([10]; Homo sapiens, five dose) of 10.5 µM. It also gave an IC50 ([10]; Homo sapiens, five dose) of 19.1 µM, an inhibition at 10 µM ([10]; Homo sapiens) of 10.1% and a GI50 ([11]; Homo sapiens, five dose) of 0.73 µM. It also gave an IC50 ([11]; Homo sapiens, five dose) of 3.39 µM, an inhibition at 10 µM ([11]; Homo sapiens) of 115% and a TGI ([11]; five dose) of 100 µM. The GI50 ([12]; Homo sapiens, five dose) was 13.6 µM, the IC50 ([12]; Homo sapiens, five dose) was 25.1 µM and the inhibition at 10 µM ([12]; Homo sapiens) was 20%. It also gave a TGI ([12]; five dose) of 100 µM, an inhibition at 10 µM ([13]; Homo sapiens) of 76.4% and a GI50 ([13]; Homo sapiens, five dose) of 0.26 µM. The IC50 ([13]; Homo sapiens, five dose) was 0.55 µM, the TGI ([13]; five dose) was 10.00 µM and the GI50 ([21]; Homo sapiens) was 6.12 µM. The IC50 ([21]; Homo sapiens) was greater than 100 µM, the TGI [21] was 100 µM and the GI50 ([14]; Homo sapiens, T47D, five dose) was 0.32 µM. It also gave an IC50 ([14]; Homo sapiens, T47D, five dose) greater than 100 µM, an inhibition at 10 µM ([14]; Homo sapiens, T47D) of 97.5% and a TGI ([14]; five dose) of 100 µM. For the same compound, the GI50 ([15]; Homo sapiens, five dose) was 10.6 µM, the IC50 ([15]; Homo sapiens, five dose) was 34.7 µM and the LC50 ([15]; Homo sapiens, five dose) was greater than 100 µM. It also gave an inhibition at 10 µM ([15]; Homo sapiens) of 58.8% and a TGI ([15]; five dose) of 100 µM.
